Reference: patent US20220202739A1, “ENDOCANNABINOID MIMETIC AND ANTI-INFLAMMATORY COMPOUND CONTAINING COMPOSITIONS, METHODS OF PREPARATION AND USES THEREOF” (priority 2019, published 2022)

These compounds were tested on FLG (assay: Gene expression custom microarray, pooled keratinocyte line (Example 3): FLG). Settings: pooled keratinocytes, 20 ppm, 24 hr.
Type: cell-based, human
Experimental: Cell cultures: Received and began culture of pooled keratinocyte line from Promocell (C-12006; Lot #448Z026). Cells were seeded into a 75 cm2 flask and 2 6 well dishes for expansion and exposure per manufacturer's protocol using Keratinocyte Growth Medium (C2011B), Keratinocyte Supplement Mix (C39016) and CaCl (C34005). 2 ml of prepared solution were added to each of the 6 wells and 7 ml was added to the 75 cm2 flask.
Experimental phase: When the appropriate quantity of cells were grown, they were detached as described above, but at the final step were seeded into each well of one or more 6 well dishes. Each well received 2 ml of the cells suspended in suspension so they were seeded equally. The dishes were returned to the incubator until 85-95% confluency is reached.
It was at this stage that all wells were rinsed in PBS after aspirating the growth media. The compound(s) to be tested were previously mixed into a suitable solvent (e.g., DMSO or ethanol) that can be diluted to the desired concentration of test compound (10 μl) in the culture wells without exceeding maximum solvent concentrations and adversely effecting cell viability, and mixed with Basal Keratinocyte Media. NOTE: Standard maximum levels of solvent are 0.1% for DMSO and 0.5% for ETOH. The concentration for each tested compound/natural extract is generally listed in the left-hand column of Table 4. For certain compositions (e.g., compositions 15 and 16), other concentrations were used and are noted in the body of Table 4.
Every 2 wells on the 6 well plate served as a biological replicate for the purposes of RNA isolation and genetic expression evaluations making each 6 well dish an n=3 for the test compound contained in the media. […]
At the end of the 24 hr time period, the plates were removed from the incubator, the test media aspirated, and the cells rinsed with PBS. […] Allow 1 minute for saturation of the membrane and then centrifuge for 2 minutes to complete the RNA elution. • Quantify the quantity of RNA and store at −20 C° until use (no more than 1 month) […]

SMILES	↑FLG gene expression, fold increase or decrease vs untreated cells
C=C(C)[C@@H]1CCC(C)=C[C@H]1c1c(O)cc(CCCCC)cc1O [CBD, cannabidiol, reference compound]	1.1 fold
CCCCCCCCCCCCCCCC(=O)NCCO [N-palmitoylethanolamide]	28.6 fold
CC(C)[C@]12O[C@H]1[C@@H]1O[C@]13[C@]1(O[C@H]1C[C@H]1C4=C(CC[C@@]13C)C(=O)OC4)[C@@H]2O [Triptolide]	14.4 fold
